Measured values taken from patent US20210017607A1, “Methods of Predicting Responsiveness to Cancer Therapies” (The University of Chicago, priority 2019, published 2021).

How the values were obtained:
[1] = test system: bone marrow derived macrophages (BMDMs); assay: IFNβ1 ELISA of supernatants after DMXAA treatment; assay type: cell-based, mouse; settings: 36 hours
Experimental: (§1) FIGS. 15A-15E. Differential STING pathway activation within B6-Myc (STING^hi) cell lines and BMDMs relative to Myc-CAP (STING^lo) cells. (15A, 15B) The indicated cancer cell lines and BMDMs were treated with DMXAA (mouse STING agonist) for 1 and 24 hours, respectively, and protein extracts were interrogated for cGAS/STING pathway activation with the indicated antibodies by Western blotting. Supernatants were collected from for IFNβ1 ELISA following 36 hours of treatment with DMXAA (15C, 15D). (15E) Syngeneic Myc-CAP (STING^lo) tumors were processed into single cell suspensions and used for phycoerythrin-based sorting of CD45+ cellular fractions. Equal numbers of cells from these fractions were stimulated with DMXAA. Supernatants were collected at 36 hrs for detection of IFNB1 by ELISA; n=3 independent experiments; Significance/p-values were calculated by one-way Anova (for 15C & 15E) or paired t-test (for 15D); TAM=tumor associated macrophage; s.e.=short exposure; l.e.=long exposure.
Generation of BMDMs. Bone marrow derived macrophages were differentiated as previously described. […]

[2] = test system: cGAS/STING signaling pathway components p-TBK1 and p-IRF3; assay: Western blotting of cGAS/STING pathway activation; assay type: cell-based, mouse
Experimental: as §1
(§2) Western Blot Analysis. RIPA and T-PER buffer (Thero Scientific®), supplemented with protease (Roche®) and HALT phosphatase inhibitor cocktail (Roche®), were used for preparation of lysates from in vitro cell lines and whole tumor chunks, respectively. For western blotting, the following antibodies were used from Cell Signaling Technology®: Polyclonal rabbit anti-mouse-phospho-γH2AX, phospho-AKT, total AKT, cGAS, STING, phospho-IRF3, total IRF3, phospho-TBK1, total TBK1, PTEN, β-actin and GAPDH. Monoclonal anti-mouse PAR antibody was obtained from Trevigen®. Images of scanned blots were processed using ADOBE Photoshop®.

PI3K = assay: In vitro target inhibition by western blotting (PI3K/AKT); assay type: cell-based, mouse
Pi3K enzymatic activity = assay: Intratumoral target inhibition by western blotting; assay type: in vivo, mouse; settings: B6-Myc and Myc-CAP tumors; 30 mg/kg oral gavage daily 7 days
Experimental: (§3) FIGS. 18A and 18B. Buparlisib and Rucaparib inhibit intratumoral Pi3K and PARP enzymatic activity, respectively, within B6-Myc (STING^hi) and Myc-CAP (STING^lo) tumors. Subcutaneous Myc-CAP (STING^lo) and B6-Myc (STING^hi) tumors at 400-500 mm^3 volumes were treated with either buparlisib (pan-PI3K inhibitor, 30 mg/kg) or rucaparib (PARP inhibitor, 150 mg/kg) by oral gavage daily for 7 days. At end of treatment, both (18A) B6-Myc (STING^hi) and (18B) Myc-CAP (STING^lo) tumors were harvested and protein extracts utilized for assessment of target inhibition with the indicated antibodies by western blotting. n=2 mice per treatment group.
as §2

B6-Myc (STING^hi) cells = assay: p-γH2AX foci (DNA DSBs) by confocal microscopy; assay type: cell-based, mouse; settings: 36 hours; rucaparib 500 nM, buparlisib 1 μM
Experimental: FIGS. 17A-17C. PARPi/PI3Ki combination induces intracellular DNA DSBs, and proportionate release of MV surface-associated DNA DSBs from B6-Myc (STING^hi) cancer cells, without affecting cellular viability. B6-Myc (STING^hi) cells were treated with indicated drugs singly or in combination for 36 hours. (17A) Cells were stained with anti-mouse specific p-γH2AX antibody and fluorescently labeled secondary antibody for determination of DNA DSBs, which were quantified by confocal microscopy. (17B) Protein extracts from cells in (17A) were analyzed for the indicated pharmacodynamic biomarkers by western blotting. […] Significance/p-values were calculated by one-way ANOVA.
Confocal Microscopy. […] Staining for DNA DSBs was done with anti-mouse primary antibody specific for phospho-γH2AX (1:500 dilution, Cell Signaling Technology and secondary anti-rabbit IgG antibody conjugated to AF647 (1:1000-1:2000 dilution in 1×PBS, Thermo Fisher Scientific®). Anti-mouse specific β-actin conjugated to Phycoerythrin (PE, Thermo Fisher Scientific®) was used to stain the cytoskeleton. All staining procedures were done at 4° C. for 30 minutes. Cells were then washed 3 times with 1×PBS and imaged immediately. All images were collected using an Olympus Fluoview® 1000 using a 100× oil objective. Acquired images were analyzed by ImageJ software, developed at NIH.

PARP = assay: In vitro target inhibition by western blotting (PARylation); assay type: cell-based, mouse
PARP enzymatic activity = assay: Intratumoral target inhibition by western blotting; assay type: in vivo, mouse; settings: B6-Myc and Myc-CAP tumors; 150 mg/kg oral gavage daily 7 days
Experimental: as §3, §2

Cc1ccc2c(=O)c3cccc(CC(=O)O)c3oc2c1C [DMXAA, 5,6-Dimethylxanthenone-4-acetic Acid]
fold induction in IFN-β levels [1]: 46.4 fold
activation of p-TBK1 and p-IRF3 ([2]; B6-Myc (STING^hi) cells): activated
activation of c-GAS/STING signaling pathway ([2]; BMDMs): activated the c-GAS/STING signaling pathway
activation of p-TBK1 and p-IRF3 ([2]; Myc-CAP (STING^lo) cells): not observed

Nc1cc(C(F)(F)F)c(-c2cc(N3CCOCC3)nc(N3CCOCC3)n2)cn1 [buparlisib]
concentration that achieved complete target inhibition in vitro (PI3K; B6-Myc cells (FIG. 17B)): 1 µM
target inhibitory concentration (PI3K; BMDMs (FIG. 30A)): 1
activation of the PI3K/AKT pathway within BMDMs (PI3K; BMDMs co-cultured with R-MVs, 24 hours): inhibits activation of the PI3K/AKT pathway
complete target inhibition concentration (PI3K; Myc-CAP cells (FIG. 29B)): 1 µM
intratumoral Pi3K enzymatic activity (Pi3K enzymatic activity): inhibit

CNCc1ccc(-c2[nH]c3cc(F)cc4c3c2CCNC4=O)cc1 [rucaparib]
DNA double-strand breaks (p-γH2AX foci) (B6-Myc (STING^hi) cells): did not show a statistically significant increase
concentration that achieved complete target inhibition in vitro (PARP; B6-Myc cells (FIG. 17B)): 500 nM
concentration that completely inhibits PARylation (PARP; B6-Myc in vitro): 500 nm
complete target inhibition concentration (PARP; Myc-CAP cells (FIG. 29B)): 500 nM
intratumoral PARP enzymatic activity (PARP enzymatic activity): inhibit
